Test results from article doi:10.1101/2025.08.17.670703v1 (biorxiv, 2025).
pIC50, pKi: −log10 of the molar value.

Assays:
[1] = molecular target: T1, HEV-PLpro (HEV papain-like cysteine protease) (Hepatitis E virus (strain Pakistan), UniProt P33424); assay: fluorogenic protease assay, secondary plot of Km' vs [I]; assay type: biochemical
T1 sequence (P33424 432-592): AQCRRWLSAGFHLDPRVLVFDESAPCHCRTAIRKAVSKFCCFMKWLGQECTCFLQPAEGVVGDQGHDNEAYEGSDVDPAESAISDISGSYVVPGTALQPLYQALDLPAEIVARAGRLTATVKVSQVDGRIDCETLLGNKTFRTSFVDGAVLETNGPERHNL

[2] = molecular target: T1, HEV-PLpro (HEV papain-like cysteine protease); assay: fluorogenic protease assay; assay type: biochemical

NC(=O)c1ncn([C@@H]2O[C@H](CO)[C@@H](O)[C@H]2O)n1 [RBV, ribavirin]
pKi [1]: 4.32 | pIC50 [2]: 4.11
